Source: US9493451B2 (Bionomics Limited, priority 2011, dated 2016)

Target: T1, Kv1.3 (Homo sapiens, UniProt P22001)
T1 construct: expressed in transfected cells; host or cells: CHO (Kv1.3/CHO)
Assay: Electrophysiology: planar patch-clamp of Kv1.3 currents, IC50 from steady state current amplitude
Assay type: cell-based
Details: Kv1.3 electrophysiology, results according to Method D1, read-out: IC50 (Kv1.3 ephys steady state)
Protocol: The inhibition data shown for the compounds of the list below was calculated using the steady state current amplitude at the end of the depolarising pulse in patch clamp evaluations (as described in the Biology Protocols: 1. Electrophysiology).
Kv1.x currents were measured in Kv1.3/CHO or Kv1.5/CHO cells using a planar electrode version (Nanion Technologies GMBH) of the patch-clamp technique. Whole-cell Kv1.x current transients were evoked by 500 ms depolarising voltage pulses to +40 mV from a holding potential of −80 mV applied at 10 s intervals for Kv1.5 and at 30 s intervals for Kv1.3 to allow adequate time for recovery from inactivation. Cells were continuously bathed in a buffered saline solution containing (mM): 160 NaCl, 4.5 KCl, 2 CaCl2, 1 MgCl2, 5 glucose, 10 HEPES, pH 7.4, 290-310 mOsm·Kg^−1. The internal (pipette) solution contained (mM): 10 NaCl, 70 KF, 75 KCl, 2 MgCl2, 10 HEPES, 10 EGTA, pH 7.2, 290-310 mOsm·Kg^−1. Series resistance compensation (60-80%) was applied to cells in which the peak current amplitude exceeded 2 nA.
Compound Preparation and Potency Assessment
Compounds were initially dissolved in DMSO to 10 mM. After further dilution in DMSO, compounds were finally diluted in bath solution 1/200 (to give a final DMSO concentration of 0.5%) and applied directly to the recording chamber. Compounds were added at increasing concentrations allowing ample time for steady state block to be achieved between each concentration. Each compound was tested at 5-6 different concentrations on 2-3 cells. Compound IC50 values were determined by fitting the average normalised reduction of either the current integral or the steady state current amplitude at the end of the 500 ms depolarising pulse obtained at each compound concentration to the Hill equation. The IC50 data reported herein is based on the steady state calculation.

T1 sequence (P22001 whole entry): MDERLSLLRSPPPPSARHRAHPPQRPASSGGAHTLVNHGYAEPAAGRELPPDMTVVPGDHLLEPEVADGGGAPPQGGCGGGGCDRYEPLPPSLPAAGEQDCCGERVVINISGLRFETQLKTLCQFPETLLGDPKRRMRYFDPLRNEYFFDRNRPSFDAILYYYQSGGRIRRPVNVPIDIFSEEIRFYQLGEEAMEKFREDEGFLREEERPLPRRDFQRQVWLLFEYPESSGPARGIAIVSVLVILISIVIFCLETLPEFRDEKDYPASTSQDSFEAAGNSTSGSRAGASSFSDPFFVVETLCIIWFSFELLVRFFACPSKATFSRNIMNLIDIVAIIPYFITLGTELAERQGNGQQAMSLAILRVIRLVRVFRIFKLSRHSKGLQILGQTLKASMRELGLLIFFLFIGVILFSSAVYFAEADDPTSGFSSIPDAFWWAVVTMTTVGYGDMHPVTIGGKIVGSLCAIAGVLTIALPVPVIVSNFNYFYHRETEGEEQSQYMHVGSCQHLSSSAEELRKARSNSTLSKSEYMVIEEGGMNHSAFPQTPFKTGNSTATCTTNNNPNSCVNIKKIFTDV

SMILES	IC50 [nM]
CCS(=O)(=O)c1cccc(C(C2CC2)N(C(=O)C2CC2c2ccccc2OC(F)(F)F)C2CCOCC2)c1 (stereo not shown) [Example 221]	200 to 1000
CCS(=O)(=O)c1cccc(C(C2CC2)N(Cc2cccnn2)C(=O)C2CC2c2cccc(C(F)(F)F)c2)c1 (stereo not shown) [Example 225]	200 to 1000
CCS(=O)(=O)c1cccc(C(C2CC2)N(Cc2cccnn2)C(=O)C2CC2c2cccc(C(F)(F)F)c2)c1 (stereo not shown) [Example 226]	200 to 1000
CCS(=O)(=O)c1ccc(C(C2CC2)N(Cc2cccnn2)C(=O)C2CC2c2ccc(F)cc2)cc1 (stereo not shown) [Example 231]	50 to 200
CCS(=O)(=O)c1ccc(C(C2CC2)N(Cc2ccc(F)cn2)C(=O)C2CC2c2ccc(F)cc2)cc1 (stereo not shown) [Example 232]	50 to 200
CCS(=O)(=O)c1ccc(C(C2CC2)N(Cc2ccc(F)cn2)C(=O)C2CC2c2ccc(F)cc2)cc1 (stereo not shown) [Example 233]	50 to 200
CC(C)S(=O)(=O)c1ccc(C(C2CC2)N(Cc2ncccc2F)C(=O)C2CC2c2ccc(F)cc2)cc1 (stereo not shown) [Example 234]	200 to 1000
CC(C)S(=O)(=O)c1ccc(C(C2CC2)N(Cc2ncccc2F)C(=O)C2CC2c2ccc(F)cc2)cc1 (stereo not shown) [Example 235]	200 to 1000
CC(C)S(=O)(=O)c1ccc(C(C2CC2)N(Cc2cccnn2)C(=O)C2CC2c2ccc(F)cc2)cc1 (stereo not shown) [Example 236]	50 to 200
CC(C)S(=O)(=O)c1ccc(C(C2CC2)N(Cc2cccnn2)C(=O)C2CC2c2ccc(F)cc2)cc1 (stereo not shown) [Example 237]	50 to 200
CC(C)S(=O)(=O)c1ccc(C(C2CC2)N(Cc2ccc(F)cn2)C(=O)C2CC2c2ccc(F)cc2)cc1 (stereo not shown) [Example 238]	50 to 200
CC(C)S(=O)(=O)c1ccc(C(C2CC2)N(Cc2ccc(F)cn2)C(=O)C2CC2c2ccc(F)cc2)cc1 (stereo not shown) [Example 239]	200 to 1000
CC(C)S(=O)(=O)c1cccc(C(C2CC2)N(Cc2cccnn2)C(=O)C2CC2c2ccc(F)cc2)c1 (stereo not shown) [Example 240]	200 to 1000
CC(C)S(=O)(=O)c1cccc(C(C2CC2)N(Cc2cccnn2)C(=O)C2CC2c2ccc(F)cc2)c1 (stereo not shown) [Example 241]	200 to 1000
CC(C)S(=O)(=O)c1cccc(C(C2CC2)N(Cc2ccc(F)cn2)C(=O)C2CC2c2ccc(F)cc2)c1 (stereo not shown) [Example 242]	50 to 200
CC(C)S(=O)(=O)c1cccc(C(C2CC2)N(Cc2ccc(F)cn2)C(=O)C2CC2c2ccc(F)cc2)c1 (stereo not shown) [Example 243]	50 to 200
CC(C)S(=O)(=O)c1cccc(C(C2CC2)N(Cc2cncc(F)c2)C(=O)C2CC2c2ccc(F)cc2)c1 (stereo not shown) [Example 244]	200 to 1000
CC(C)S(=O)(=O)c1cccc(C(C2CC2)N(Cc2ncccc2F)C(=O)C2CC2c2ccc(F)cc2)c1 (stereo not shown) [Example 245]	200 to 1000
CC(C)S(=O)(=O)c1cccc(C(C2CC2)N(Cc2ncccc2F)C(=O)C2CC2c2ccc(F)cc2)c1 (stereo not shown) [Example 246]	200 to 1000

Continued, values first:

IC50 [nM]	SMILES
50 to 200	CCS(=O)(=O)c1cccc(C(C2CC2)N(Cc2ncccc2F)C(=O)C2CC2c2ccc(F)cc2)c1 (stereo not shown) [Example 218]
50 to 200	CCS(=O)(=O)c1cccc(C(C2CC2)N(C(=O)C2CC2c2ccc(F)cc2)C2CCC(F)(F)CC2)c1 (stereo not shown) [Example 219]
50 to 200	CCS(=O)(=O)c1cccc(C(C2CC2)N(C(=O)C2CC2c2ccccc2OC(F)(F)F)C2CCOCC2)c1 (stereo not shown) [Example 220]
50 to 200	CCS(=O)(=O)c1cccc(C(C2CC2)N(Cc2ccc(F)cn2)C(=O)C2CC2c2ccc(OC(F)F)cc2)c1 (stereo not shown) [Example 222]
50 to 200	CCS(=O)(=O)c1cccc(C(C2CC2)N(Cc2cccnn2)C(=O)C2CC2c2ccc(F)cc2)c1 (stereo not shown) [Example 223]
50 to 200	CCS(=O)(=O)c1ccc(C(C2CC2)N(Cc2ccc(F)cn2)C(=O)C2CC2c2cccc(C(F)(F)F)c2)cc1 (stereo not shown) [Example 227]
50 to 200	CCS(=O)(=O)c1ccc(C(C2CC2)N(Cc2ccc(F)cn2)C(=O)C2CC2c2cccc(C(F)(F)F)c2)cc1 (stereo not shown) [Example 228]
50 to 200	CCS(=O)(=O)c1ccc(C(C2CC2)N(Cc2ccc(F)cn2)C(=O)C2CC2c2ccc(F)cc2F)cc1 (stereo not shown) [Example 229]
50 to 200	CCS(=O)(=O)c1ccc(C(C2CC2)N(Cc2ccc(F)cn2)C(=O)C2CC2c2ccc(F)cc2F)cc1 (stereo not shown) [Example 230]
